This note sets out measurements from the supplement of paper PMC10307832.

The subject of one experiment is NCI-H1666. Description: relative viability (nuclei count vs DMSO), 5 days (fraction); higher = more cells survive. Particulars: first compound 0.08 µM. A digest of the protocol: (§1)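 Dosing by pin tool came one day after lung cancer cell lines were seeded in 1536-well plates, using either one drug or a fixed anchor-drug dose plus five library-drug doses (not always all listed) in √10 steps. After 5 days, nuclei were counted on 4× images. Relative viability is treated-well nuclei count divided by vehicle-well nuclei count, and values are medians of duplicate plates.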
For `CCCCCCCCCCCC1=C(O)C(=O)C=C(O)C1=O` [Embelin] + COc1cc2c(Oc3ccc(NC(=O)C4(C(=O)Nc5ccc(F)cc5)CC4)cc3F)ccnc2cc1OCCCN1CCOCC1 [Foretinib] (partner 0.25 µM), the relative viability was 0.943.
The same measure, in the same setting: the value for `CCCCCCCCCCCC1=C(O)C(=O)C=C(O)C1=O` [Embelin] + CC(=O)Nc1cccc(-n2c(=O)n(C3CC3)c(=O)c3c(Nc4ccc(I)cc4F)n(C)c(=O)c(C)c32)c1 [Trametinib] (partner 0.02 µM) was 0.813; that for `CCCCCCCCCCCC1=C(O)C(=O)C=C(O)C1=O` [Embelin] + CS(=O)(=O)N1CCN(Cc2cc3nc(-c4cccc5[nH]ncc45)nc(N4CCOCC4)c3s2)CC1 [Pictilisib] (partner 1 µM) was 0.482; that for `CCCCCCCCCCCC1=C(O)C(=O)C=C(O)C1=O` [Embelin] + NC(=O)Nc1cc(-c2cccc(F)c2)sc1C(=O)N[C@H]1CCCNC1 [AZD7762] (partner 0.2 µM) was 0.871.
Still for that read-out and setting: the figure for `CCCCCCCCCCCC1=C(O)C(=O)C=C(O)C1=O` [Embelin] + Cc1nc(NC(=O)N2CCC[C@H]2C(N)=O)sc1-c1ccnc(C(C)(C)C(F)(F)F)c1 [Alpelisib] (partner 2 µM) is 1.01.

Staying with this experiment, now noted: first compound 0.8 µM.
`CCCCCCCCCCCC1=C(O)C(=O)C=C(O)C1=O` [Embelin] + COc1cc2c(Oc3ccc(NC(=O)C4(C(=O)Nc5ccc(F)cc5)CC4)cc3F)ccnc2cc1OCCCN1CCOCC1 [Foretinib] (partner 0.25 µM): the relative viability was determined as 1.07.
With `CCCCCCCCCCCC1=C(O)C(=O)C=C(O)C1=O` [Embelin] + CC(=O)Nc1cccc(-n2c(=O)n(C3CC3)c(=O)c3c(Nc4ccc(I)cc4F)n(C)c(=O)c(C)c32)c1 [Trametinib] (partner 0.02 µM), the relative viability came out at 0.824.
`CCCCCCCCCCCC1=C(O)C(=O)C=C(O)C1=O` [Embelin] + CS(=O)(=O)N1CCN(Cc2cc3nc(-c4cccc5[nH]ncc45)nc(N4CCOCC4)c3s2)CC1 [Pictilisib] (partner 1 µM) had a relative viability of 0.549.
In turn, `CCCCCCCCCCCC1=C(O)C(=O)C=C(O)C1=O` [Embelin] + NC(=O)Nc1cc(-c2cccc(F)c2)sc1C(=O)N[C@H]1CCCNC1 [AZD7762] (partner 0.2 µM) came in with a relative viability of 0.885.
As for `CCCCCCCCCCCC1=C(O)C(=O)C=C(O)C1=O` [Embelin] + Cc1nc(NC(=O)N2CCC[C@H]2C(N)=O)sc1-c1ccnc(C(C)(C)C(F)(F)F)c1 [Alpelisib] (partner 2 µM), the relative viability was found to be 1.09.

Still in this experiment, the particulars now being: first compound 2.53 µM.
Compound `CCCCCCCCCCCC1=C(O)C(=O)C=C(O)C1=O` [Embelin] + COc1cc2c(Oc3ccc(NC(=O)C4(C(=O)Nc5ccc(F)cc5)CC4)cc3F)ccnc2cc1OCCCN1CCOCC1 [Foretinib] (partner 0.25 µM) had a relative viability of 0.978.
On to `CCCCCCCCCCCC1=C(O)C(=O)C=C(O)C1=O` [Embelin] + CC(=O)Nc1cccc(-n2c(=O)n(C3CC3)c(=O)c3c(Nc4ccc(I)cc4F)n(C)c(=O)c(C)c32)c1 [Trametinib] (partner 0.02 µM), for which the relative viability is 0.838.
Consider `CCCCCCCCCCCC1=C(O)C(=O)C=C(O)C1=O` [Embelin] + CS(=O)(=O)N1CCN(Cc2cc3nc(-c4cccc5[nH]ncc45)nc(N4CCOCC4)c3s2)CC1 [Pictilisib] (partner 1 µM), for which the relative viability amounted to 0.365.
Turning to `CCCCCCCCCCCC1=C(O)C(=O)C=C(O)C1=O` [Embelin] + NC(=O)Nc1cc(-c2cccc(F)c2)sc1C(=O)N[C@H]1CCCNC1 [AZD7762] (partner 0.2 µM), the relative viability is 0.782.
In turn, `CCCCCCCCCCCC1=C(O)C(=O)C=C(O)C1=O` [Embelin] + Cc1nc(NC(=O)N2CCC[C@H]2C(N)=O)sc1-c1ccnc(C(C)(C)C(F)(F)F)c1 [Alpelisib] (partner 2 µM) gave a relative viability of 1.05.

Staying with this experiment, now noted: first compound 8 µM.
With `CCCCCCCCCCCC1=C(O)C(=O)C=C(O)C1=O` [Embelin] + COc1cc2c(Oc3ccc(NC(=O)C4(C(=O)Nc5ccc(F)cc5)CC4)cc3F)ccnc2cc1OCCCN1CCOCC1 [Foretinib] (partner 0.25 µM), the relative viability is 0.941.
The same measure, in the same setting: the figure for `CCCCCCCCCCCC1=C(O)C(=O)C=C(O)C1=O` [Embelin] + CC(=O)Nc1cccc(-n2c(=O)n(C3CC3)c(=O)c3c(Nc4ccc(I)cc4F)n(C)c(=O)c(C)c32)c1 [Trametinib] (partner 0.02 µM) is 0.91; for `CCCCCCCCCCCC1=C(O)C(=O)C=C(O)C1=O` [Embelin] + CS(=O)(=O)N1CCN(Cc2cc3nc(-c4cccc5[nH]ncc45)nc(N4CCOCC4)c3s2)CC1 [Pictilisib] (partner 1 µM) it is 0.403; for `CCCCCCCCCCCC1=C(O)C(=O)C=C(O)C1=O` [Embelin] + NC(=O)Nc1cc(-c2cccc(F)c2)sc1C(=O)N[C@H]1CCCNC1 [AZD7762] (partner 0.2 µM) it is 0.922.
For `CCCCCCCCCCCC1=C(O)C(=O)C=C(O)C1=O` [Embelin] + Cc1nc(NC(=O)N2CCC[C@H]2C(N)=O)sc1-c1ccnc(C(C)(C)C(F)(F)F)c1 [Alpelisib] (partner 2 µM), the relative viability turned out to be 0.955.

For a further experiment, the system named is NCI-H727. The description is as above. Particulars: first compound 0.08 µM. A digest of the protocol: as §1
Consider `CCCCCCCCCCCC1=C(O)C(=O)C=C(O)C1=O` [Embelin] + COc1cc2c(Oc3ccc(NC(=O)C4(C(=O)Nc5ccc(F)cc5)CC4)cc3F)ccnc2cc1OCCCN1CCOCC1 [Foretinib] (partner 0.25 µM), for which the relative viability was found to be 0.793.
`CCCCCCCCCCCC1=C(O)C(=O)C=C(O)C1=O` [Embelin] + CC(=O)Nc1cccc(-n2c(=O)n(C3CC3)c(=O)c3c(Nc4ccc(I)cc4F)n(C)c(=O)c(C)c32)c1 [Trametinib] (partner 0.02 µM): the relative viability turned out to be 0.4.
For `CCCCCCCCCCCC1=C(O)C(=O)C=C(O)C1=O` [Embelin] + CS(=O)(=O)N1CCN(Cc2cc3nc(-c4cccc5[nH]ncc45)nc(N4CCOCC4)c3s2)CC1 [Pictilisib] (partner 1 µM), the relative viability turned out to be 0.359.
`CCCCCCCCCCCC1=C(O)C(=O)C=C(O)C1=O` [Embelin] + NC(=O)Nc1cc(-c2cccc(F)c2)sc1C(=O)N[C@H]1CCCNC1 [AZD7762] (partner 0.2 µM) registered a relative viability of 0.533.
`CCCCCCCCCCCC1=C(O)C(=O)C=C(O)C1=O` [Embelin] + Cc1nc(NC(=O)N2CCC[C@H]2C(N)=O)sc1-c1ccnc(C(C)(C)C(F)(F)F)c1 [Alpelisib] (partner 2 µM) yielded a relative viability of 0.629.

Staying with this experiment, now noted: first compound 0.8 µM.
`CCCCCCCCCCCC1=C(O)C(=O)C=C(O)C1=O` [Embelin] + COc1cc2c(Oc3ccc(NC(=O)C4(C(=O)Nc5ccc(F)cc5)CC4)cc3F)ccnc2cc1OCCCN1CCOCC1 [Foretinib] (partner 0.25 µM) displayed a relative viability of 1.13.
`CCCCCCCCCCCC1=C(O)C(=O)C=C(O)C1=O` [Embelin] + CC(=O)Nc1cccc(-n2c(=O)n(C3CC3)c(=O)c3c(Nc4ccc(I)cc4F)n(C)c(=O)c(C)c32)c1 [Trametinib] (partner 0.02 µM): the relative viability worked out at 0.394.
In turn, `CCCCCCCCCCCC1=C(O)C(=O)C=C(O)C1=O` [Embelin] + CS(=O)(=O)N1CCN(Cc2cc3nc(-c4cccc5[nH]ncc45)nc(N4CCOCC4)c3s2)CC1 [Pictilisib] (partner 1 µM) yielded a relative viability of 0.526.
